Data published in patent US20210113529A1, “MEDICINE FOR PREVENTING OR TREATING OPHTHALMIC DISEASE ASSOCIATED WITH ENHANCED INTRAOCULAR NEOVASCULARIZATION AND/OR INTRAOCULAR VASCULAR PERMEABILITY” (KYOTO UNIVERSITY, priority 2018, published 2021).

How the values were obtained:
[1] = tested on: laser-induced choroidal neovascularization (CNV) model; assay: Laser-induced CNV model: area of CNV in choroidal flat mount; format: in vivo, mice; conditions: Day 14
Experimental: After fluorescence fundus photography had been performed as described above in the section (1), 0.5 mL of fluorescein isothiocyanate dextran (FITC-dextran; 20 mg/mL, Sigma-Aldrich) was administered into the tail vein of the mice. The mice were euthanized by cervical dislocation, and the eyeball was extirpated. The extirpated eyeball was fixed in a 4% paraformaldehyde phosphate buffer for 12 hours. After that, the cornea and lens were excised under a microscope, and the remaining vitreous artery was removed with forceps. Further, the retina was removed, and the choroid was notched 8 points and embedded with Fluoromount (Diagnostic BioSystems) in a flat state to generate a choroidal flat mount specimen. The choroidal flat mount was photographed using a confocal laser scanning microscope (FLUOVIEW FV10i; Olympus, Tokyo, Japan). Next, on the basis of the photographed image, the CNV was encircled using analysis software OLYMPUS FLUOVIEW FV10i (Olympus), and the area thereof was determined as the area of CNV (μm^2). All analyses were performed in a blinded manner. After fluorescence fundus photography had been performed as described above in the section (1), a choroidal flat mount specimen was generated by the same method as in Example 1. The choroidal flat mount was photographed using an all-in-one fluorescence microscope (BZ-X710; Keyence, Osaka, Japan). Next, on the basis of the photographed image, the CNV was encircled using image editing software Image J, and the area thereof was determined as the area of CNV (μm^2). All analyses were performed in a blinded manner.

[2] = tested on: lymphocytes in the peripheral blood; assay: Lymphocyte count in peripheral blood, C57BL/6J strain mice; format: in vivo; conditions: C57BL/6J mice, 24 hours from final administration
Experimental: Seven-week-old mice (Japan SLC, Inc., C57BL/6J strain) were repeatedly orally administered Compound 1 suspended in a vehicle (0.5% MC solution) at a dose of 0.003 mg/kg, 0.01 mg/kg, 0.03 mg/kg, 0.1 mg/kg, 0.3 mg/kg, or 1 mg/kg (in terms of free form) once daily for 14 days in the same manner as in Example 1. A control was administered only the vehicle (vehicle group). Experiments were performed using 5 mice in each group. At 24 hours from the final administration, blood was collected from the abdominal vena cava under isoflurane anesthesia using a heparin-treated syringe, and was mixed with ethylenediaminetetraacetic acid dipotassium salt (EDTA.2K) (1 mg). The lymphocyte count in the collected blood was measured using XT-2000iv (Sysmex Corporation).

[3] = tested on: lymphocytes in the peripheral blood; assay: Lymphocyte count in peripheral blood, ddy strain mice; format: in vivo; conditions: 0.03 mg/kg orally twice at an interval of 12 hours, 24 hours from second administration
Experimental: Next, 7-week-old mice (Japan SLC, Inc., ddy strain) were orally administered Compound 1 suspended in a vehicle (0.5% MC solution) at a dose of 0.03 mg/kg or 0.3 mg/kg (in terms of free form) twice at an interval of 12 hours in the same manner as in Example 2. A control was administered only the vehicle (vehicle group). Experiments were performed using 6 mice in each group. After 24 hours from the second administration, blood was collected from the abdominal vena cava under isoflurane anesthesia using a heparin-treated syringe, and was mixed with EDTA.2K (1 mg). The lymphocyte count in the collected blood was measured using XT-2000iv (Sysmex Corporation).

[4] = tested on: human retinal vascular endothelial cells (HRMECs); assay: Permeability of human retinal vascular endothelial cells (Transwell, FITC-dextran); format: cell-based; conditions: HRMECs in Transwell; 0.3 nM, 3 nM or 30 nM; 60 minutes pre-culture, 60 minutes after FITC-dextran (40 kDa)
Experimental: The upper chamber of Transwell (diameter: 6.5 mm, pore size: 0.4 μm: Corning Incorporated) coated with collagen and fibronectin was seeded with human retinal vascular endothelial cells (HRMECs) (Cell Systems) at a cell density of 5×10^4 cells/well, and the cells were cultured in Endothelial Cell Growth Medium MV 2 (PromoCell GmbH) under a 5% CO2 atmosphere at 37° C. for 6 days. Then, to the upper chamber and lower chamber of the Transwell, Compound 1 at a final concentration of 0 nM, 0.3 nM, 3 nM, or 30 nM, which had been prepared using 0.001% dimethyl sulfoxide-containing Endothelial Cell Growth Medium MV 2 as a vehicle, was added, and culture was continued. A well to which only the vehicle was added was used as a control. After 60 minutes of culture, 1 mg/mL of fluorescein isothiocyanate (FITC)-dextran (40 kDa: Sigma-Aldrich) was added to the upper chamber of the Transwell, and 60 minutes later, the fluorescence intensity of the medium in the lower chamber was measured to measure the amount of FITC-dextran permeating the lower chamber.

[5] = target: S1P2 receptor (Homo sapiens, UniProt O95136); conditions: GTP[γ35S] binding assay; report PLoS One, 2014; cited from earlier work
[6] = target: T1, S1P4 receptor (Homo sapiens, UniProt O95977); conditions: GTP[γ35S] binding assay; report PLoS One, 2014; cited from earlier work
T1 sequence (O95977 1-384): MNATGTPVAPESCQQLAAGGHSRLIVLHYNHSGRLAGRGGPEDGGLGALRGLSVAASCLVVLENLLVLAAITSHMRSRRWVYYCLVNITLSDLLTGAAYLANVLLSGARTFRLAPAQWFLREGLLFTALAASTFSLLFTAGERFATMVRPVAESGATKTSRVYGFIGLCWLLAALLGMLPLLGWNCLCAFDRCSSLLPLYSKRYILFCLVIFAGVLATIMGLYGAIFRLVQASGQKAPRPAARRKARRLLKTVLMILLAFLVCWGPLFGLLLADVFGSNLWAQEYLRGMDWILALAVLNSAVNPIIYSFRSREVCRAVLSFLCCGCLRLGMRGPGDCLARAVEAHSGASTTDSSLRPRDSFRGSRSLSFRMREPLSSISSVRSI

Sequence of S1P2 receptor (O95136 whole entry): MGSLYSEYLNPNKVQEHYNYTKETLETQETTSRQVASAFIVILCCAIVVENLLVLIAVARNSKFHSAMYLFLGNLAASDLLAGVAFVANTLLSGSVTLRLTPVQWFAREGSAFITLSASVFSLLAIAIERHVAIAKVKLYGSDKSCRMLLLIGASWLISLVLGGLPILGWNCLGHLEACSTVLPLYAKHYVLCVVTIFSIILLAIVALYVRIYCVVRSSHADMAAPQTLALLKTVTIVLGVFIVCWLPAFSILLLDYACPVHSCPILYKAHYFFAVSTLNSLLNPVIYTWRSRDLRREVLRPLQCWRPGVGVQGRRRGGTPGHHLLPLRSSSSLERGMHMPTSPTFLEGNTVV

## C[C@H](Oc1ccc(-c2nc(-c3ccc4[nH]cnc4c3)no2)cc1C(F)(F)F)C(F)(F)F.Cl [Compound 1, 5-{5-[3-(trifluoromethyl)-4-{[(2S)-1,1,1-trifluoropropan-2-yl]oxy}phenyl]-1,2,4-oxadiazol-3-yl}-1H-benzimidazole monohydrochloride]
[1]; 0.03 mg/kg orally once daily
  area of CNV: a decrease in area of CNV
[1]; 0.3 mg/kg orally once daily
  area of CNV: a significant decrease was found
  reduction ratio of the area of CNV: 34%
[2]; 0.03 mg/kg orally once daily for 14 days
  lymphocytes in the peripheral blood: not found to have a significant action
[2]; 0.1 mg/kg or more orally once daily for 14 days
  lymphocytes in the peripheral blood: significantly decreased lymphocytes in the peripheral blood
[3]
  lymphocytes in the peripheral blood: did not cause a significant decrease in lymphocytes in the peripheral blood
[4]
  amount of FITC-dextran permeating the lower chamber (fluorescence intensity): significantly decreased the amount of FITC-dextran permeating the lower chamber
[5]
  EC50 for S1P2 receptor agonist activity as compared to that for the S1P1 receptor: ≥ 100 fold
[6]
  EC50 for S1P4 receptor agonist activity as compared to that for the S1P1 receptor: ≥ 100 fold
